Test results reported in ChEMBL document CHEMBL5465560, “Selectivity Literature for EUbOPEN Chemogenomic Library” (2024).

Key:
[1] = molecular target: Cyclin-dependent kinase-like 3 (Homo sapiens) (UniProt Q8IVW4); test: Selectivity interaction (KinomeScan (DiscoverX)) EUB0000229b CDKL3; conditions: at 10 µM
[2] = molecular target: Serine/threonine-protein kinase 38 (Homo sapiens) (UniProt Q15208); test: Selectivity interaction (KinomeScan (DiscoverX)) EUB0000695a STK38; conditions: at 100 nM
[3] = molecular target: cAMP-dependent protein kinase catalytic subunit beta (Homo sapiens) (UniProt P22694); test: Selectivity interaction (KinomeScan (DiscoverX)) EUB0001079a PRKACB; conditions: at 1 µM
[4] = molecular target: T1, Serine/threonine-protein kinase NLK (Homo sapiens) (UniProt Q9UBE8); test: Selectivity interaction (LanthaScreen Eu Kinase Binding Assay) EUB0001632a NLK; conditions: at 10 µM
T1 sequence (whole entry): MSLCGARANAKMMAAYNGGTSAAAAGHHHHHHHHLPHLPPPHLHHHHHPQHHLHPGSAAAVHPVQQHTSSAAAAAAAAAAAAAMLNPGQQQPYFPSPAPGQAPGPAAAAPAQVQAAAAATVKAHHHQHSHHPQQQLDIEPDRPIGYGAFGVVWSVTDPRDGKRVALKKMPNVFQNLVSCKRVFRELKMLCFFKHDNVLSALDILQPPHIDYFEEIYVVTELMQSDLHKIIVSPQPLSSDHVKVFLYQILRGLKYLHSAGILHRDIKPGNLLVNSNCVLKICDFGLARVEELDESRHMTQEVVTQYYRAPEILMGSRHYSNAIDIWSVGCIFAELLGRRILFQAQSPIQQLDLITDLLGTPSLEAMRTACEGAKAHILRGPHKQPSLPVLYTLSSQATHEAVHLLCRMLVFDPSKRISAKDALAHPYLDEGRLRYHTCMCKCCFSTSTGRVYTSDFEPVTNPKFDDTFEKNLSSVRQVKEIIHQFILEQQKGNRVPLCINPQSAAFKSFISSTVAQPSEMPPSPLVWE

[5] = molecular target: Casein kinase I isoform gamma-3 (Homo sapiens) (UniProt Q9Y6M4); conditions: at 10 µM
[6] = molecular target: Histone-lysine N-methyltransferase KMT5B (Homo sapiens) (UniProt Q4FZB7); test: Selectivity interaction (Methyltransferase screen (radiometric assays, panel of 8 PRMTs, 21 protein lysine methyltransferases, 3 DNA methyltransferases, and one RNA methyltransferase)) EUB0000271b SUV420H1
[7] = molecular target: Ribosomal protein S6 kinase beta-1 (Homo sapiens, UniProt P23443); test: Selectivity interaction (KinomeScan (DiscoverX)) EUB0001619a RPS6KB1; conditions: at 1 µM
[8] = molecular target: Mitogen-activated protein kinase kinase kinase kinase 1 (Homo sapiens) (UniProt Q92918); test: Selectivity interaction (ActivX KiNativ screen (ex vivo kinase selectivity in human PBMCs)) EUB0001619a MAP4K1; assay type: cell-based; conditions: PBMC, at 1 µM
[9] = molecular target: T2, Discoidin domain-containing receptor 2 (Homo sapiens) (UniProt Q16832); test: Selectivity interaction (KinomeScan (DiscoverX)) EUB0001619a DDR2; conditions: at 1 µM
T2 sequence (whole entry): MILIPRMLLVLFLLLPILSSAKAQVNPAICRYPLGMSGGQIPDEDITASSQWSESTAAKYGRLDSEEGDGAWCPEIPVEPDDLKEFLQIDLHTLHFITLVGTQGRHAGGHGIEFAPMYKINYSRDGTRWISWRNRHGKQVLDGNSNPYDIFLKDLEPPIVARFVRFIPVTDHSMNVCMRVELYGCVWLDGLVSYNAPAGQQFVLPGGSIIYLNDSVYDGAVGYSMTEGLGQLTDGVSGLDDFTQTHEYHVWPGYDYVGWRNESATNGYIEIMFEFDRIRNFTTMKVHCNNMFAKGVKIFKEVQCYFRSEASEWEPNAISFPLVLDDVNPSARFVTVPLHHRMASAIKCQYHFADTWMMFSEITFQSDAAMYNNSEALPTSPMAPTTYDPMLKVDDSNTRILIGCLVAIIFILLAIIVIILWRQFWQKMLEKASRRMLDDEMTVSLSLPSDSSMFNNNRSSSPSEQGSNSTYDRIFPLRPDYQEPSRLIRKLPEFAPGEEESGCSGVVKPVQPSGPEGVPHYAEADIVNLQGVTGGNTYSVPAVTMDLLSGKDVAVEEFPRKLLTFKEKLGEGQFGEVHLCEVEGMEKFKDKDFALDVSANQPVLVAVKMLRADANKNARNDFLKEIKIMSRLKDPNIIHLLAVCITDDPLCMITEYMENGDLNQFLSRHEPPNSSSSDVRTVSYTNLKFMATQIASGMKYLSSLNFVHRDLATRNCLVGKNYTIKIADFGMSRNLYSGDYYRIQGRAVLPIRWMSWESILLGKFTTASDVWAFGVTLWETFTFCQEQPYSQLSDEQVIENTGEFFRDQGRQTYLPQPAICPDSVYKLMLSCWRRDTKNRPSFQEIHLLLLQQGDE

[10] = molecular target: T3, Rhodopsin kinase GRK1 (Homo sapiens) (UniProt Q15835); test: Selectivity interaction (KinomeScan (DiscoverX)) EUB0001619a GRK1; conditions: at 1 µM
T3 sequence (whole entry): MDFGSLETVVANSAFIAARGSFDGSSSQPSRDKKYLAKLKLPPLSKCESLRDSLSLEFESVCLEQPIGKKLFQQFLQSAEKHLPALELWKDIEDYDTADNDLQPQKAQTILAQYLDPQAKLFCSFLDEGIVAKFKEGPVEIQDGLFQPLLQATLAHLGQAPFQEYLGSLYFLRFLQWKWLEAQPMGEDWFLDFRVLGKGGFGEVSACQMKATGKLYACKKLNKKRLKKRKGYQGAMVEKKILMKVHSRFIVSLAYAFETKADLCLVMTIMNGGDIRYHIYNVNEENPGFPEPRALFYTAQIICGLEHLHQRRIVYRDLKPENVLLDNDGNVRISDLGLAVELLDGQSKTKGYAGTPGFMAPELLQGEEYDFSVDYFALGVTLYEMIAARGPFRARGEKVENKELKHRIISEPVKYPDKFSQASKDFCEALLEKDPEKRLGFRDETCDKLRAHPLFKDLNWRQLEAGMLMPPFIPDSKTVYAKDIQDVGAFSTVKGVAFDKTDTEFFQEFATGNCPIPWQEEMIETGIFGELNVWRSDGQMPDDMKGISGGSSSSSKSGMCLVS

[11] = molecular target: Serine/threonine-protein kinase PLK2 (Homo sapiens, UniProt Q9NYY3); test: Selectivity interaction (SelectScreen profiling (Invitrogen)) EUB0000607a PLK2; conditions: at 2 µM
[12] = molecular target: Ribosomal protein S6 kinase alpha-2 (Homo sapiens) (UniProt Q15349); test: Selectivity interaction (KinomeScan (DiscoverX)) EUB0000607a RPS6KA2; conditions: at 10 µM
[13] = molecular target: Misshapen-like kinase 1 (Homo sapiens, UniProt Q8N4C8); test: Selectivity interaction (ActivX KiNativ screen (kinase selectivity in THP-1 cell lysates)) EUB0000639a MINK1; assay type: subcellular; conditions: lysate
Chain of Misshapen-like kinase 1 (Q8N4C8 whole entry, looked up): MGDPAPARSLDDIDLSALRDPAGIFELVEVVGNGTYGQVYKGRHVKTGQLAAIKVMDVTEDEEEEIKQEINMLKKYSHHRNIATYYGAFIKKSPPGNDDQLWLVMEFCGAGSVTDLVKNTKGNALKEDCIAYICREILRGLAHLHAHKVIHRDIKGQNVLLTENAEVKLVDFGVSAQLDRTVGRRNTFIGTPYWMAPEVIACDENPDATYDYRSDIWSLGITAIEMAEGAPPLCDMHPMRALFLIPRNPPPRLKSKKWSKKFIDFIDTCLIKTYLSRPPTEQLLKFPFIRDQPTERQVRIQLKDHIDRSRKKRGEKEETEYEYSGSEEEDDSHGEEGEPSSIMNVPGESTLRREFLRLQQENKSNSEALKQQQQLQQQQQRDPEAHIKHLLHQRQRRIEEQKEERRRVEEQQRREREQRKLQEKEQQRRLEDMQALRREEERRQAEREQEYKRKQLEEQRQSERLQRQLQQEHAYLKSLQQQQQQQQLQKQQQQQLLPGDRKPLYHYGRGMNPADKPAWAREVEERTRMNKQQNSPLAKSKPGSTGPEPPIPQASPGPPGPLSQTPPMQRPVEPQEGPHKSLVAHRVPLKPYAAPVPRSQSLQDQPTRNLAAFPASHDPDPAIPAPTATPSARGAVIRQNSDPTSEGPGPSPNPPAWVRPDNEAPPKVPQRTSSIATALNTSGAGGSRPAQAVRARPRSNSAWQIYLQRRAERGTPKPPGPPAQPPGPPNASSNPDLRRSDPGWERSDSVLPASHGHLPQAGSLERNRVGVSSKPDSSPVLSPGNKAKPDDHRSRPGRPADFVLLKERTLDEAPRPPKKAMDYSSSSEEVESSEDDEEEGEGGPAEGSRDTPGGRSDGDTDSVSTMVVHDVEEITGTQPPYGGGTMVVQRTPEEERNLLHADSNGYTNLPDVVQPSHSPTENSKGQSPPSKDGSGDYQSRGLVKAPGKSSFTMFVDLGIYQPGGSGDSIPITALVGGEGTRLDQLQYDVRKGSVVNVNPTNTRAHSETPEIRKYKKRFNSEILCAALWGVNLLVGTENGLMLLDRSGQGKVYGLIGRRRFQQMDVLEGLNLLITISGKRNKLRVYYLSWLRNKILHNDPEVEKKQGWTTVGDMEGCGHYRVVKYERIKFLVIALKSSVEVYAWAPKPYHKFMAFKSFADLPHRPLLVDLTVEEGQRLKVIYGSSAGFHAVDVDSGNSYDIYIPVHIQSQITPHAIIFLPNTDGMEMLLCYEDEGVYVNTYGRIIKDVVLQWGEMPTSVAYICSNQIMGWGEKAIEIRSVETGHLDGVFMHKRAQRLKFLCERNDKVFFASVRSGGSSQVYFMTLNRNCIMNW

Chain of Histone-lysine N-methyltransferase KMT5B (Homo sapiens) (Q4FZB7 whole entry, looked up): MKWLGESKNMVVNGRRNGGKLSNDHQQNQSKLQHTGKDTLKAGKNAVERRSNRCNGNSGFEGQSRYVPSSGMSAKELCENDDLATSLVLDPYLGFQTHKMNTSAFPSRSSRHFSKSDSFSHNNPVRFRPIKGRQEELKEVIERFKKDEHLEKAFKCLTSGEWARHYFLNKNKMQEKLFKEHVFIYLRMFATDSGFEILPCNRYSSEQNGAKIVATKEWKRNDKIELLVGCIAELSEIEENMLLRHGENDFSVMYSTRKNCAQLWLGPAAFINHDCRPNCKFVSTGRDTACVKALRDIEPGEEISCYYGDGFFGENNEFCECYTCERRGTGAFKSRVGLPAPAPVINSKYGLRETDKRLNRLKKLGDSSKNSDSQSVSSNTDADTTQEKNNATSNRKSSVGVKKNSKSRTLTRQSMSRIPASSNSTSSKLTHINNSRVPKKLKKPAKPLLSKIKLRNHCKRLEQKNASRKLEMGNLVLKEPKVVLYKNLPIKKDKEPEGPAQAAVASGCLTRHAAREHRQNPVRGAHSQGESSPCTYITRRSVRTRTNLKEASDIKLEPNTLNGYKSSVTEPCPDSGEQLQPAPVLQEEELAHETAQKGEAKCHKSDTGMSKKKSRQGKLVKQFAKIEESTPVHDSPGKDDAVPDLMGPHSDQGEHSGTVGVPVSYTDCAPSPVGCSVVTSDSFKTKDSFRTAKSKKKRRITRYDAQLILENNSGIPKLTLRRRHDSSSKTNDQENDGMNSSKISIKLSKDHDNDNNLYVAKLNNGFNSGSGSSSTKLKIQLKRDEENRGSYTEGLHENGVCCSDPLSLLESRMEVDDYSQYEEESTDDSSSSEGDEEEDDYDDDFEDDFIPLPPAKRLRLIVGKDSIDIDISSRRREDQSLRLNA
Chain of Serine/threonine-protein kinase PLK2 (Q9NYY3 whole entry, looked up): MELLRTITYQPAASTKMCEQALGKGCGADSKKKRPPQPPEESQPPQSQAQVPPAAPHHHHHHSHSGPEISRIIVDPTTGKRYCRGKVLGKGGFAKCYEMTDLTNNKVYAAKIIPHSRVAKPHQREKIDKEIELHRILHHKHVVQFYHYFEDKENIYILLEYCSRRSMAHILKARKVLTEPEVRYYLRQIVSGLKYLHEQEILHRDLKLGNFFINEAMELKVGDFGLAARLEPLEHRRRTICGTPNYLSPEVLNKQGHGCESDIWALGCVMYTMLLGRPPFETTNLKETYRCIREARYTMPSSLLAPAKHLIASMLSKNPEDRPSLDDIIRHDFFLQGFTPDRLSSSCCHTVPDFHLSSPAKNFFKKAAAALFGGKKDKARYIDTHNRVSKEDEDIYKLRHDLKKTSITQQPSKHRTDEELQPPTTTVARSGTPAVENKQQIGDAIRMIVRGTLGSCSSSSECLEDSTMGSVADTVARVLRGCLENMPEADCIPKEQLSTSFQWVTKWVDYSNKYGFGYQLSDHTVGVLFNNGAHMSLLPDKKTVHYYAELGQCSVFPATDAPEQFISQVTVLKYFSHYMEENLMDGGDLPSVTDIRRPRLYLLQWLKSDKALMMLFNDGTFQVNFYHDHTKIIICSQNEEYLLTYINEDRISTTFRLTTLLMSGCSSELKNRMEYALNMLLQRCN
Chain of Casein kinase I isoform gamma-3 (Homo sapiens) (Q9Y6M4 whole entry, looked up, canonical isoform): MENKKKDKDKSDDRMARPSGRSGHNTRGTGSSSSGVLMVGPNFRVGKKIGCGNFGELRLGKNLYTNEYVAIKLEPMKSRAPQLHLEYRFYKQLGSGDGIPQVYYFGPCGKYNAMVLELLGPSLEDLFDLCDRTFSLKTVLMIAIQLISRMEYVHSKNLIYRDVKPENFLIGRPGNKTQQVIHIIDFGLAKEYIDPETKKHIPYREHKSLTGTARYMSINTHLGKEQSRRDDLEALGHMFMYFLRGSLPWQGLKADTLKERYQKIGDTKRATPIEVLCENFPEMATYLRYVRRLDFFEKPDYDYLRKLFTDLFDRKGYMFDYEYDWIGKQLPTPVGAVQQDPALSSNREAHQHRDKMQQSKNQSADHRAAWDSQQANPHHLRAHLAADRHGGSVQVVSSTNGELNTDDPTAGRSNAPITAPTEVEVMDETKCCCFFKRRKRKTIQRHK
Chain of Mitogen-activated protein kinase kinase kinase kinase 1 (Homo sapiens) (Q92918 whole entry, looked up, the tested form may be a part): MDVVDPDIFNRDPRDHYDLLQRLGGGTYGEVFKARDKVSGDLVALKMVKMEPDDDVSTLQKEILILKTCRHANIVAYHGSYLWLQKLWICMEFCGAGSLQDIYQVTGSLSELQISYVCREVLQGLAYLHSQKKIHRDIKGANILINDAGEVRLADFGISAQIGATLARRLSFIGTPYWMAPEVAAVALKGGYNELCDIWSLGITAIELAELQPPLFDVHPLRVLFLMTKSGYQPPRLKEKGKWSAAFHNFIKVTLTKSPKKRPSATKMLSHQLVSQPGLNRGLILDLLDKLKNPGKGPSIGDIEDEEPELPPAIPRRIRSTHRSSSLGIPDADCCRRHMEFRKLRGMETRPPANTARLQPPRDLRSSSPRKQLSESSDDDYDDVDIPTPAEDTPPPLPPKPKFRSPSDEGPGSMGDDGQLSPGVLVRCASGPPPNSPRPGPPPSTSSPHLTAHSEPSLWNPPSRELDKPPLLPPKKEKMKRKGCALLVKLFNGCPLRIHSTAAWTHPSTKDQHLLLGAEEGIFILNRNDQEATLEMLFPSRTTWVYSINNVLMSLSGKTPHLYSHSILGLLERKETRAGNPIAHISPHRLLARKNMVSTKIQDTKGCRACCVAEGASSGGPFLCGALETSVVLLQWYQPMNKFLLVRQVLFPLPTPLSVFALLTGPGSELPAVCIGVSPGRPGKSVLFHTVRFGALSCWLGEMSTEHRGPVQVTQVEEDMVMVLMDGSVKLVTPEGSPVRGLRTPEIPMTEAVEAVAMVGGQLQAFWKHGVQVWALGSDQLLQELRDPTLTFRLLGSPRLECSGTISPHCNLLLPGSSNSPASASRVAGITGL
Chain of Ribosomal protein S6 kinase beta-1 (P23443 whole entry, looked up): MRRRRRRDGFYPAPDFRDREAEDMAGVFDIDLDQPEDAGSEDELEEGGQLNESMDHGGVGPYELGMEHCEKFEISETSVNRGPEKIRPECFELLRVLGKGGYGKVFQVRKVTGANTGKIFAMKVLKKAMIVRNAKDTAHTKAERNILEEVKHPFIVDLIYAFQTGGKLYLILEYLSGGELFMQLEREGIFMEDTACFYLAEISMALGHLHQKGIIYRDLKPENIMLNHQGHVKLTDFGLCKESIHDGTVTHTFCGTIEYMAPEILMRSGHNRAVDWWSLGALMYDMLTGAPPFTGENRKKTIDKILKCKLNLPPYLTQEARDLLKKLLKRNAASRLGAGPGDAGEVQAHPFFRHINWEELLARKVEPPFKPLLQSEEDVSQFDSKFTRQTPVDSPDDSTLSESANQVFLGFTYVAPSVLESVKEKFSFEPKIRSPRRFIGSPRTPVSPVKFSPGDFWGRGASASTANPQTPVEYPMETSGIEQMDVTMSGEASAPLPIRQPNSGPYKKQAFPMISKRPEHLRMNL

Work on `COc1cc(N(C)c2ccnc3ccc(C(F)(F)F)cc23)cc(OC)c1OC` yielded a % binding [1] of 88%.
With `Cc1cc(F)c(C(=O)Nc2cccc(-c3nncn3C(C)C)n2)cc1-n1cnc(C2CC2)c1` the % of control [2] was 93%.
Work on `Nc1cnc(N2CCc3cc(S(=O)(=O)Nc4c(F)cc(Cl)cc4F)cc(N4CCCC4=O)c32)nc1` [TP-020n] yielded a % of control [3] of 100%.
In the case of `Cn1cc(-n2cnc3c(NCc4nc5cc(Cl)c(Cl)cc5[nH]4)nc(N4CCOCC4)nc32)cn1`, the % of inhibition [4] is reported as 13.4%.
`Cc1cc([C@@H](C)Nc2ccccc2C(=O)O)c2nc(N3CCOCC3)cc(=O)n2c1` [AZD-6482] showed a % of control [5] of 100%.
`Cc1cc(C)cc([C@@H]2c3cc(C)ccc3NC(=O)CN2C(=O)c2ccc(Br)s2)c1` was tested, and the % of activity ([6]; at 1 µM) was 103% and the % of activity ([6]; at 10 µM) was 101%.
For `N#Cc1cccc(-c2c[nH]c3ncnc(N4CCOCC4)c23)c1`, the % of control [7] was 100%, the % of inhibition [8] was 6% and the % of control [9] was 71%. For the same compound, the % of control [10] was 74%.
`CNC(=O)Nc1ccc(-c2nc(N3CC4CCC(C3)O4)c3cnn(C4CCC5(CC4)OCCO5)c3n2)cc1` showed a % of inhibition [11] of 1% and a % of control [12] of 100%.
For `CC[C@@H]1[C@H](F)C(=O)N[C@@H]1COc1nccc2cc(C(N)=O)c(OC)cc12` [ZIMLOVISERTIB], the % of inhibition ([13]; at 0.01 µM) was -5.5%, the % of inhibition ([13]; at 0.04 µM) was -1.7% and the % of inhibition ([13]; at 0.2 µM) was -13.9%. It also gave a % of inhibition ([13]; at 1 µM) of -2.7% and a % of inhibition ([13]; at 5 µM) of 3.1%.
